Test results: US20200392150A1, “Diaryl-B-Lactam Compound and Preparation Method and Pharmaceutical Use Thereof” (Fudan University, priority 2016, published 2020)

Tests used:
[1] = test system: tubulin in SKOV-3 cells; test: Immunofluorescent analysis of tubulin morphology; type: cell-based, human; conditions: 24 h
Experimental: After treatment with diluent (0.2% DMSO) or tested compounds at indicated concentrations for 24 h, SKOV-3 cells were fixed with methanol, permeabilized with 0.1% Triton X-100 in PBS and blocked by goat serum. Then the cells were incubated with a-tubulin antibody at 4° C. overnight, followed by incubation with Alexa 488 labeled secondary antibody (Jackson ImmunoResearch) at RT for 1 h. After being stained with DAPI, cells were examined and photographed with a Leica SP5 co-focal fluorescence microscope.

[2] = test system: Hela; test: In vitro cell growth inhibition assay (MTT); type: cell-based, human; conditions: Hela human cervical cancer cell line, 48 h, MTT; read-out: IC50 Hela
In short: (§1)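 IC50 values come from growth inhibition rates calculated from MTT absorbance at 540 nm. Compound exposure lasted 48 h on cells plated at 5000 per well.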

[3] = test system: SKOV3; test: In vitro cell growth inhibition assay (MTT); type: cell-based, human; conditions: SK-OV-3; SKOV-3 human ovarian cancer cell line, 48 h, MTT; read-out: IC50 SKOV3
In short: as §1

[4] = test system: MDA-MB-231; test: In vitro cell growth inhibition assay (MTT); type: cell-based, human; conditions: MDA-MB-231 human breast cancer cell line, 48 h, MTT; read-out: IC50 MDA-MB-231
In short: as §1

[5] = test system: A2780; test: In vitro cell growth inhibition assay (MTT); type: cell-based, human; conditions: A2780 human ovarian cancer cell line, 48 h, MTT; read-out: IC50 A2780
In short: as §1

[6] = test system: tubulin in Hela cells; test: Immunoblotting analysis of polymerized/depolymerized tubulin; type: cell-based, human; conditions: 6 h
Experimental: After being treated with diluent (0.2% DMSO), tested compound, CA-4 or PTX for 6 h, Hela cells were lysed with microtubulestabilizing buffer, containing 100 mM PIPES, pH 6.8, 1 mM MgCl2, 2 mM EGTA, 0.5% NP-40, 2 M glycerol, 5 μM PTX and protease inhibitors cocktail (Roche), and the lysate was centrifuged at 15,000 rpm for 15 min. Supernatant containing depolymerized tubulin was carefully collected, whereas pellet (polymerized tubulin) was further dissolved in SDS-lysis buffer (Beyotime, China). Equal amounts of supernatant and dissolved pellet were subjected to immunoblotting analysis as described above using atubulin antibody (Proteintech).

Compound | tubulin assembly (immunofluorescence) [1] | IC50 [2] [nM] | IC50 [3] [nM] | IC50 [4] [nM] | IC50 [5] [nM] | polymerized tubulin (immunoblotting) [6] | melting point [°C]
C=C1C(=O)N(c2cc(OC)c(OC)c(OC)c2)[C@H]1c1ccc(OC)c(O)c1 [Compound 1, (S)-4-(3-hydroxy-4-methoxyphenyl)-3-methylene-1-(3,4,5-trimethoxyphenyl)azetidin-2-one] | significantly inhibit tubulin aggregation | 186 | 128 | 234 | 143 | significantly inhibit tubulin aggregation | –
C=C1C(=O)N(c2cc(OC)c(OC)c(OC)c2)[C@H]1c1ccc(OC)c(Cl)c1 [Compound 39, (S)-4-(3-chloro-4-methoxyphenyl)-3-methylene-1-(3,4,5-trimethoxyphenyl)azetidin-2-one] | – | 371 | 341 | 512 | 316 | – | 119 to 120
C=C1C(=O)N(c2cc(OC)c(OC)c(OC)c2)[C@H]1c1ccc(OC)c(C(=O)OC)c1 [Compound 40, (5)-methyl 2-methoxy-5-(3-methylene-4-oxo-1-(3,4,5-trimethoxyphenyl)azetidin-2-yl)benzoate] | – | 942 | 539 | 479 | 281 | – | 112 to 113
C=CC(=O)Nc1cc([C@H]2C(=C)C(=O)N2c2cc(OC)c(OC)c(OC)c2)ccc1OC [Compound 42, (S)—N-(2-methoxy-5-(3-methylene-4-oxo-1-(3,4,5-trimethoxyphenyl)azetidin-2-yl)phenyl)acrylamide] | – | 125 | 63 | 34 | 65 | – | 143 to 144
C=C1C(=O)N(c2cc(OC)c(OC)c(OC)c2)[C@H]1c1ccc(OC)c(NC(=O)c2ccc([N+](=O)[O-])cc2)c1 [Compound 43, (S)—N-(2-methoxy-5-(3-methylene-4-oxo-1-(3,4,5-trimethoxyphenyl)azetidin-2-yl)phenyl)-4-nitrobenzamide] | – | 1580 | 1420 | 2000 | 931 | – | 234 to 235
C=C1C(=O)N(c2cc(OC)c(OC)c(OC)c2)[C@H]1c1ccc(OC)c(NS(N)(=O)=O)c1 [Compound 44, (S)—N-(2-methoxy-5-(3-methylene-4-oxo-1-(3,4,5-trimethoxyphenyl)azetidin-2-yl)phenyl)sulfamoylamide] | – | 456 | 833 | 841 | 354 | – | 101 to 102
C=C1C(=O)N(c2cc(OC)c(OC)c(OC)c2)[C@H]1c1ccc(OC)c(NC(=O)C2CC2)c1 [Compound 45, (S)—N-(2-methoxy-5-(3-methylene-4-oxo-1-(3,4,5-trimethoxyphenyl)azetidin-2-yl)phenyl)cyclopropanecarboxamide] | – | 321 | 224 | 197 | 148 | – | 181 to 182
C=C1C(=O)N(c2cc(OC)c(OC)c(OC)c2)[C@H]1c1ccc(OC)c(OC(C)=O)c1 [Compound 46, (S)-2-methoxy-5-(3-methylene-4-oxo-1-(3,4,5-trimethoxyphenyl)azetidin-2-yl)phenyl acetate] | – | 116 | 104 | 133 | 81 | – | 122 to 123
C=C1C(=O)N(c2cc(OC)c(OC)c(OC)c2)[C@H]1c1ccc(OC)c(OCc2ccccc2)c1 [Compound 47, (S)-4-(3-(benzyloxy)-4-methoxyphenyl)-3-methylene-1-(3,4,5-trimethoxyphenyl)azetidin-2-one] | – | > 20000 | > 20000 | > 20000 | > 20000 | – | 133 to 134
C=C1C(=O)N(c2ccc(OC)c(OC)c2)[C@H]1c1ccc(OC)c(O)c1 [Compound 48, (S)-1-(3,4-dimethoxyphenyl)-4-(3-hydroxy-4-methoxyphenyl)-3-methyleneazetidin-2-one] | – | > 20000 | 14800 | 6100 | 4570 | – | 74 to 75
C=C1C(=O)N(c2cccc(OC)c2)[C@H]1c1ccc(OC)c(O)c1 [Compound 51, (S)-1-(3-methoxyphenyl)-4-(3-hydroxy-4-methoxyphenyl)-3-methyleneazetidin-2-one] | – | 2170 | 1390 | 1370 | 677 | – | 104 to 105
C=C1C(=O)N(c2ccc(OC)cc2)[C@H]1c1ccc(OC)c(O)c1 [Compound 52, (S)-1-(4-methoxyphenyl)-4-(3-hydroxy-4-methoxyphenyl)-3-methyleneazetidin-2-one] | – | > 20000 | > 20000 | > 20000 | > 20000 | – | 180 to 181
COc1ccc([C@H]2/C(=C/C[Si](C)(C)C)C(=O)N2c2cc(OC)c(OC)c(OC)c2)cc1O [Compound 53, (S,Z)-4-(3-hydroxy-4-methoxyphenyl)-1-(3,4,5-trimethoxyphenyl)-3-(2-(trimethylsilyl)ethylidene)azetidin-2-one] | – | > 10000 | > 10000 | > 10000 | > 10000 | – | 67 to 69
